The structures appear in SMILES notation. In brackets after ≈: the same amount, converted by molar mass. A value given as a limit tells only on which side of the number the result lay.

Data set [1] can be described thus: Tmax in mouse at 100 mg/kg, po. Format: ADME, organism-based. Particulars: in vivo.
A short description of data set [2]: Cmax in mouse at 30 mg/kg, po. The format is ADME, organism-based. The arrangement: dose 30 mg/kg, route oral. The note with it: in vivo.
The test system of data set [3] is Mus musculus. Briefly: In-vivo transrepression of RORgammat in mouse assessed as inhibition of IL23-stimulated IL17 production at 100 mg/kg, po administered 30 mins before and 6 hrs after IL-23 injection in skin intradermally measured after 24 hrs by ELISA relative to control. The format is functional.
In data set [4] the target is T1, Oxysterols receptor LXR-beta (Homo sapiens, UniProt P55055).
T1 sequence (P55055 whole entry): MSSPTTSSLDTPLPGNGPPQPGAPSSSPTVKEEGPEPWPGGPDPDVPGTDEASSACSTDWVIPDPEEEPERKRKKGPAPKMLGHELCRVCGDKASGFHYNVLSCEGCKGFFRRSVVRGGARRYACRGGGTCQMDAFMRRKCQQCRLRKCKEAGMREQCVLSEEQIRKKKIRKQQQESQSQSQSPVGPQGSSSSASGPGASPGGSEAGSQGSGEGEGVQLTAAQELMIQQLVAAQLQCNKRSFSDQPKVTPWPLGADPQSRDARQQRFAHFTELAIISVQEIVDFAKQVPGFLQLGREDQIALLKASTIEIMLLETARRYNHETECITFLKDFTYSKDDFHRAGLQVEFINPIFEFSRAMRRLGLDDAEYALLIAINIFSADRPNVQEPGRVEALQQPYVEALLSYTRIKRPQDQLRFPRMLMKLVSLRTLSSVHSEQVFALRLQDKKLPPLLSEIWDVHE
Briefly: Transrepression of recombinant human GAL4-DBD fused LXRbeta LBD expressed in HEK293 cells after 20 hrs by luciferase reporter gene assay. The format is cell-based.

The test system of data set [5] is Mus musculus. In words: In-vivo transrepression of RORgammat in mouse assessed as inhibition of IL23-stimulated IL17 production at 30 mg/kg, po administered 30 mins before and 6 hrs after IL-23 injection in skin intradermally measured after 24 hrs by ELISA relative to control. The format is functional.
Data set [6] can be described thus: Half life in rat at 0.5 mg/kg, iv. The format is ADME, organism-based. The note with it: in vivo.
In data set [7] the test system is Mus musculus. In words: In-vivo transrepression of RORgammat in po dosed mouse assessed as inhibition of IL23-stimulated IL17 production administered 30 mins before and 6 hrs after IL-23 injection in skin intradermally measured after 24 hrs by ELISA. The format is functional, organism-based.
The nature of data set [8]: AUC in mouse at 30 mg/kg, po. The format is ADME, organism-based. Particulars: in vivo.
A short description of data set [9]: Cmax in mouse at 100 mg/kg, po. Format: ADME, organism-based. Details: dose 100 mg/kg, route oral. The note with it: in vivo.
Data set [10] can be described thus: Tmax in mouse at 30 mg/kg, po. The format is ADME, organism-based. Particulars: in vivo.
For data set [11], the target named is T2, Nuclear receptor ROR-gamma (Homo sapiens, UniProt P51449).
T2 sequence (P51449 whole entry): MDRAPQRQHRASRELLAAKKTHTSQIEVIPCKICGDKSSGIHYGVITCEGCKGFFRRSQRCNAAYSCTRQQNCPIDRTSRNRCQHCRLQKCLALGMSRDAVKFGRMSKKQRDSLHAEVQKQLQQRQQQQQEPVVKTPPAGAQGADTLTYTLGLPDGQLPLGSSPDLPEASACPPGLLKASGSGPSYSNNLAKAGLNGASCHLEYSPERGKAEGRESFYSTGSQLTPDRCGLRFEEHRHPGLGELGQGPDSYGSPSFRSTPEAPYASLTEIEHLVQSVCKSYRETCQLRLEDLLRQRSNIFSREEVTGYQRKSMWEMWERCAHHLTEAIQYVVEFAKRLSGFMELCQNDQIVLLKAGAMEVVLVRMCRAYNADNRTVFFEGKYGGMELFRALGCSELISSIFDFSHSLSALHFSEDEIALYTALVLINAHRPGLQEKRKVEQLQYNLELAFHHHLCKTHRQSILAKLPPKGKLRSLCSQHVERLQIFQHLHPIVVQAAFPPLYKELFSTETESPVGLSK
In words: Displacement of [3H]-Digoxin from recombinant human GST-fused RORgammat LBD after 1 to 4 hrs by scintillation counting method.

Data set [12] can be described thus: AUC in mouse at 100 mg/kg, po. The format is ADME, organism-based. Particulars: in vivo.
A short description of data set [13]: Solubility of the compound in NaCl/HCl buffer at pH 1.2 by shake-flask method. The format is physicochemical.
Data set [14] deals with T3, Nuclear receptor ROR-gamma (Homo sapiens) (UniProt P51449).
T3 sequence (whole entry): T2 sequence (P51449 whole entry)
In words: (§1) Transrepression of recombinant human GAL4-DBD fused RORgammat LBD expressed in HEK293 cells after 20 hrs by luciferase reporter gene assay. Format: cell-based.

The target of data set [15] is T2, Nuclear receptor ROR-gamma. Described as §1. Format: cell-based.

Turning to `CCS(=O)(=O)c1ccc(CC(=O)Nc2ccc(C(C)(C)C(=O)Nc3ccc(F)cc3F)c(F)c2)cc1`, the Tmax came to 48 min in data set [1] and 1.5 h in [10]. Also, the results for the Cmax in data set [2] and in data set [9] were 8350 ng/mL and 17800 ng/mL, respectively. In the data set on Mus musculus [3], the inhibition in vivo at 100 mg/kg was 63%. For the same molecule, the concentration giving a half-maximal response (EC50) in [4] is greater than 30 µM. Also, the inhibition in vivo at 30 mg/kg in the data set on Mus musculus [5] was 41%. Moreover, in data set [6], the half-life was 192 min. Further, the inhibition entry in the data set with Mus musculus [7] is “Dose-dependent effect”. Moreover, the values for the AUC in data set [8] and in data set [12] were 43500 ng·h/mL and 96300 ng·h/mL, respectively. For the same molecule, the figures for the IC50 in [11] and in [15] were less than 30 nM and 29 nM, respectively. The molecule further came in with a solubility (thermodynamic) in data set [13] of 29 µM (≈ 15 µg/mL). Moreover, the Efficacy in [14] was determined as 100%.
As to `CCS(=O)(=O)c1ccc(CC(=O)Nc2ccc(C(C)(C)C(=O)Nc3ccc(F)cc3)c(F)c2)cc1`, the EC50 in [4] is greater than 30 µM. In data set [6], the half-life is 150 min. Moreover, the IC50 in data set [11] is less than 30 nM; in data set [15], 25 nM. For the same molecule, the solubility (thermodynamic) in [13] was 26 µM (≈ 13 µg/mL). Also, in data set [14], the Efficacy amounted to 95%.
For `CCS(=O)(=O)c1ccc(CC(=O)Nc2ccc(C(C)(C)C(=O)Nc3cc(C#N)ccn3)c(F)c2)cc1`, the Tmax in [1] amounted to 30 min; in [10], 0.5 h. The highest concentration (Cmax) in data set [2] turned out to be 2700 ng/mL; in [9], 8450 ng/mL. In addition, the inhibition in vivo at 100 mg/kg with Mus musculus [3] was 38%. The EC50 in data set [4] was greater than 30 µM. For the same molecule, the inhibition in vivo at 30 mg/kg in the data set on Mus musculus [5] was found to be 22%. In data set [6], the half-life was 174 min. Moreover, in the data set on Mus musculus [7], the inhibition result is “Dose-dependent effect”. In addition, the results for the AUC in data set [8] and in [12] were 4740 ng·h/mL and 23000 ng·h/mL, respectively. Moreover, the IC50 in data set [11] was less than 30 nM; in [15] it was 16 nM. Besides, the solubility (thermodynamic) in data set [13] is 30 µM (≈ 15.3 µg/mL). In data set [14], the Efficacy turned out to be 95%.

The record behind these values is ChEMBL document CHEMBL4261613, “Discovery of a potent orally bioavailable retinoic acid receptor-related orphan receptor-gamma-t (RORγt) inhibitor, S18-000003” (Bioorg Med Chem Lett, 2018).
